Paper PMC7253723, “Chain-End Modifications and Sequence Arrangements of Antimicrobial Peptoids for Mediating Activity and Nano-Assembly” (Frontiers in Chemistry, 2020)
“And” between values parts separate entries of the source, which are not always exact repeats. Identical values can stand only once. Like-named read-outs stand apart in the source and are kept apart here. Square brackets hold non-standard residues; d marks the D form. Peptide text beside a SMILES is read from it. * marks the point of attachment. N(1-naphthylmethyl)Gly = O=C(O)CNCc1cccc2ccccc12; N(4-MeBn)Gly = Cc1ccc(CNCC(=O)O)cc1; Palmitoyl = CCCCCCCCCCCCCCCC(=O)*; Nspe = C[C@H](NCC(=O)O)c1ccccc1; Lauroyl = CCCCCCCCCCCC(=O)*; Nonanoyl = CCCCCCCCC(=O)*; AEEA = NCCOCCOCC(=O)O; NBuGly = CCCCNCC(=O)O; Nlys = NCCCCNCC(=O)O

Assays:
[1] = Analytical RP-HPLC elution (ACN %) as measure of hydrophobicity; assay type: physicochemical; settings: chromatographic, C18 column (250 × 4.6 mm Nucleosil), 30 min gradient 5–95% ACN in water with 0.1% TFA, 1 mL/min, used as measure of hydrophobicity
Protocol: Peptoids were synthesized on resin manually or with an automated synthesizer (Prelude X, Gyros Protein Technologies) using a solid phase “submonomer” approach (Zuckermann et al., [1992]; Lau, [2014]; Lau et al., [2017]). Briefly, the Fmoc protected rink amide resin was deprotected with 20% piperidine for 20 min, applied twice. Each residue was added by treatment to a mixture of bromoacetic acid (20 times excess) and diisopropyl-carbodiimide (18.5 times excess) for 15 min, followed by a halo-substitution reaction with appropriate primary amine submonomers. For the attachment of a di ethylene glycol linker, Fmoc-amino-3,6 dioxaoctanoic acid (1.8 mmol), and equivalent moles of HBTU ((2-(1H-benzotriazol-1-yl)-1,1,3,3-tetramethyluronium hexafluorophosphate) were reacted with the terminal amino group in the presence of N,N-diisopropylethylamine (DIPEA, 2.7 mmol). This reaction was carried out for 2 h at 37°C and repeated a second time for 4 h, to ensure coupling. Like resin Fmoc deprotection, EG2 N-terminal Fmoc deprotection was achieved using 20% piperidine for 20 min, applied twice. Different chain lengths of saturated fatty acids, i.e., pelargonic acid (C8), lauric acid (C11), and palmitic acid (C15) were subsequently coupled using the HBTU amide coupling as reported previously (Lau et al., [2017]). After solid phase synthesis, the resin was cleaved and side chains were deprotected for 30 min using a standard TFA:TIPS:H2O cocktail (95:2.5:2.5 v/v/v). Excess TFA was removed using a rotary evaporator and the peptoid was precipitated from the oily product using diethyl ether. The collected material was dissolved in small amounts of 1:1 acetonitrile:water (ACN:H2O) to ease sample transfer, and further dried in a lyophilizer. Dried crude products were weighed and dissolved in ACN-H2O mixtures for preparative RP-HPLC (Dionex Ultimate 3000) with a C18 column (250 × 10 mm Phenomenex Jupiter). Fractions containing the pure product were identified by ESI-LC-MS (Agilent 1200 with a Poroshell C18 column coupled to an Agilent 6130 mass spectrometer) and by analytical RP-HPLC (Dionex P680) using a C18 column (250 × 4.6 mm “Nucleosil”) with a 30 min gradient of 5–95% acetonitrile (ACN) in water containing 0.1% TFA at 1 mL/min. The purified fractions of peptoids and lipopeptoids were later stored as aliquots at −20°C until further analysis.

[2] = Critical aggregation concentration (CAC) Nile red fluorescence assay; assay type: physicochemical; settings: room temperature
Protocol: Nile red (NR) fluorescence was used to measure critical aggregation concentration (CAC) for the synthesized lipopeptoids. Lipopeptoids were dissolved at 2.5 × 10^−2 to 1 wt.% in a dilute solution of Nile red (0.25 μg/100 mL, i.e. ~10 nM concentration) prepared in water. NR was excited at 552 nm and emission was recorded at room temperature in the range 550–750 nm using a 10.0 × 5.0 mm^2 quartz cell (Jasco spectrofluorimeter FP-6500). The intensity of the peak centered around 610 nm is shown in the data presented in Section results and discussion.
We first examined with a CAC assay whether coupling a hydrophobic tail to AMPMs and inserting the kk and EG2 components is a viable design for generating self-assembling lipopeptoids. The CAC measures the concentration above which hydrophobic pockets (e.g., lipophilic cores of micelles) are formed, and lower CACs indicate higher propensities of self-assembly. In our experiments, the CAC is indicated by an inflection in the increase in emission intensity of a lipophilic fluorophore tracer (Nile Red) that emits more strongly when partitioned into hydrophobic lower dielectric environments (see Figure S6 for an example analysis).

[3] = test system: Pseudomonas aeruginosa (PA01); assay type: cell-based
Protocol: (§1) Technical triplicates (n = 3) or more of samples at each concentration were analyzed.

[4] = test system: Escherichia coli (ATCC 25922); assay type: cell-based
Protocol: as §1

[5] = test system: Staphylococcus aureus (NCTC 4135); assay type: cell-based
Protocol: as §1

[6] = Nile red fluorescence (~10 nM NR in water), lipopeptoids 2.5 × 10^-2 to 1 wt.%, excitation 552 nm, peak around 610 nm, inflection in emission intensity
[7] = PA01, MH broth microdilution (CLSI M07-A10), ~5 × 10^5 CFU/mL, overnight 37°C, OD 600 nm, MIC = concentration with OD halfway between minimum and maximum, sigmoidal fit ± SD, n = 3 or more, maximum tested 100 μM
[8] = MH broth microdilution (CLSI M07-A10), ~5 × 10^5 CFU/mL, overnight 37°C, OD 600 nm, MIC = concentration with OD halfway between minimum and maximum, sigmoidal fit ± SD, n = 3 or more, maximum tested 100 μM

Structure (SMILES) | elution ACN % (RP-HPLC retention) [1] [ACN %] | CAC [2, 6] | Antimicrobial activity (MIC) P. aeruginosa [3, 7] [µM] | Antimicrobial activity (MIC) E. coli [4, 8] [µM] | Antimicrobial activity (MIC) S. aureus [5, 8] [µM] | CAC ([2]; Nile red fluorescence in water, CAC expressed in mg/mL) [mg/mL] | Antimicrobial activity (MIC) P. aeruginosa [3] [µM] | Antimicrobial activity (MIC) E. coli [4] [µM] | Antimicrobial activity (MIC) S. aureus [5] [µM] | Hydrodynamic radius RH (DLS) [nm]
CCCCCCCCCCCCCCCC(=O)N(CCCCN)CC(=O)N(CC(=O)N(CC(=O)N(CCCCN)CC(=O)N(CC(=O)N(CC(=O)N(CCCCN)CC(=O)N(CC(=O)N(CC(=O)N(CCCCN)CC(=O)N(CC(=O)N(CC(=O)N(CCCCN)CC(=O)N(CCCCN)CC(N)=O)[C@@H](C)c1ccccc1)[C@@H](C)c1ccccc1)[C@@H](C)c1ccccc1)[C@@H](C)c1ccccc1)[C@@H](C)c1ccccc1)[C@@H](C)c1ccccc1)[C@@H](C)c1ccccc1)[C@@H](C)c1ccccc1 [C15-(kss)4-kk] (Palmitoyl-[Nlys][Nspe][Nspe][Nlys][Nspe][Nspe][Nlys][Nspe][Nspe][Nlys][Nspe][Nspe][Nlys][Nlys]-NH2) | 66 | 304 µM and 300 ± 25 µM |  |  |  |  |  |  |  | 
CCCCCCCCCCCC(=O)NCCOCCOCC(=O)N(CCCCN)CC(=O)N(CC(=O)N(CC(=O)N(CCCCN)CC(=O)N(CC(=O)N(CC(=O)N(CCCCN)CC(=O)N(CC(=O)N(CC(=O)N(CCCCN)CC(=O)N(CCCCN)CC(N)=O)[C@@H](C)c1ccccc1)[C@@H](C)c1ccccc1)[C@@H](C)c1ccccc1)[C@@H](C)c1ccccc1)[C@@H](C)c1ccccc1)[C@@H](C)c1ccccc1 [C11-EG2-(kss)3-kk] ({Lauroyl-AEEA}-[Nlys][Nspe][Nspe][Nlys][Nspe][Nspe][Nlys][Nspe][Nspe][Nlys][Nlys]-NH2) | 54 | 310 ± 38 µM | 15 ± 0.4 | 3 ± 0.2 | 1 ± 0.1 | 0.52 |  |  |  | 
CCCCCCCCC(=O)NCCOCCOCC(=O)N(CC(=O)N(CCCCN)CC(=O)N(CC(=O)N(CCCCN)CC(=O)N(CC(=O)N(CCCCN)CC(=O)N(CCCC)CC(=O)N(CCCCN)CC(N)=O)Cc1cccc2ccccc12)Cc1ccc(C)cc1)Cc1cccc2ccccc12 [C8-EG2-kykbk] ({Nonanoyl-AEEA}-[N(1-naphthylmethyl)Gly][Nlys][N(4-MeBn)Gly][Nlys][N(1-naphthylmethyl)Gly][Nlys][NBuGly][Nlys]-NH2) |  | 1900 ± 200 µM | 15 ± 3 | 11 ± 4 | 2 ± 0.2 |  |  |  |  | 
CCCCCCCCC(=O)NCCOCCOCC(=O)N(CC(=O)N(CC(=O)N(CC(=O)N(CCCC)CC(=O)N(CCCCN)CC(=O)N(CCCCN)CC(=O)N(CCCCN)CC(=O)N(CCCCN)CC(=O)N(CCCCN)CC(N)=O)Cc1cccc2ccccc12)Cc1ccc(C)cc1)Cc1cccc2ccccc12 [C8-EG2-5k] ({Nonanoyl-AEEA}-[N(1-naphthylmethyl)Gly][N(4-MeBn)Gly][N(1-naphthylmethyl)Gly][NBuGly][Nlys][Nlys][Nlys][Nlys][Nlys]-NH2) |  | 1600 ± 390 µM |  |  |  |  | 41 ± 2 | 74 ± 4 | 8 ± 0.3 | 
CCCCCCCCC(=O)NCCOCCOCC(=O)N(CCCCN)CC(=O)N(CC(=O)N(CC(=O)N(CCCCN)CC(=O)N(CC(=O)N(CC(=O)N(CCCCN)CC(=O)N(CC(=O)N(CC(=O)N(CCCCN)CC(=O)N(CCCCN)CC(N)=O)[C@@H](C)c1ccccc1)[C@@H](C)c1ccccc1)[C@@H](C)c1ccccc1)[C@@H](C)c1ccccc1)[C@@H](C)c1ccccc1)[C@@H](C)c1ccccc1 [C8-EG2-(kss)3-kk] ({Nonanoyl-AEEA}-[Nlys][Nspe][Nspe][Nlys][Nspe][Nspe][Nlys][Nspe][Nspe][Nlys][Nlys]-NH2) |  | 270 ± 30 µM | 6 ± 2 | 2 ± 0.3 | 3 ± 1 |  |  |  |  | 
CCCCCCCCCCCCCCCC(=O)NCCOCCOCC(=O)N(CCCCN)CC(=O)N(CC(=O)N(CC(=O)N(CCCCN)CC(=O)N(CC(=O)N(CC(=O)N(CCCCN)CC(=O)N(CC(=O)N(CC(=O)N(CCCCN)CC(=O)N(CC(=O)N(CC(=O)N(CCCCN)CC(=O)N(CCCCN)CC(N)=O)[C@@H](C)c1ccccc1)[C@@H](C)c1ccccc1)[C@@H](C)c1ccccc1)[C@@H](C)c1ccccc1)[C@@H](C)c1ccccc1)[C@@H](C)c1ccccc1)[C@@H](C)c1ccccc1)[C@@H](C)c1ccccc1 [C15-EG2-(kss)4-kk] ({Palmitoyl-AEEA}-[Nlys][Nspe][Nspe][Nlys][Nspe][Nspe][Nlys][Nspe][Nspe][Nlys][Nspe][Nspe][Nlys][Nlys]-NH2) |  |  |  |  |  |  | >100 | 44 ± 5 | 36 ± 5 | 45
CCCCCCCCC(=O)NCCOCCOCC(=O)N(CC(=O)N(CC(=O)N(CC(=O)N(CCCC)CC(=O)N(CCCCN)CC(=O)N(CCCCN)CC(=O)N(CCCCN)CC(=O)N(CCCCN)CC(N)=O)Cc1cccc2ccccc12)Cc1ccc(C)cc1)Cc1cccc2ccccc12 [C8-EG2-4k] ({Nonanoyl-AEEA}-[N(1-naphthylmethyl)Gly][N(4-MeBn)Gly][N(1-naphthylmethyl)Gly][NBuGly][Nlys][Nlys][Nlys][Nlys]-NH2) |  | 2500 ± 350 µM | 16 ± 2 | 17 ± 1 | 18 ± 3 |  |  |  |  | 
C[C@@H](c1ccccc1)N(CC(N)=O)C(=O)CN(C(=O)CN(CCCCN)C(=O)CN(C(=O)CN(C(=O)CNCCCCN)[C@@H](C)c1ccccc1)[C@@H](C)c1ccccc1)[C@@H](C)c1ccccc1 [(kss)2, reference compound] (H-[Nlys][Nspe][Nspe][Nlys][Nspe][Nspe]-NH2) |  |  | 44 ± 2 | >100 | 41 ± 2 |  |  |  |  | 
CCCCCCCCCCCC(=O)NCCOCCOCC(=O)N(CCCCN)CC(=O)N(CC(=O)N(CC(=O)N(CCCCN)CC(=O)N(CC(=O)N(CC(=O)N(CCCCN)CC(=O)N(CCCCN)CC(N)=O)[C@@H](C)c1ccccc1)[C@@H](C)c1ccccc1)[C@@H](C)c1ccccc1)[C@@H](C)c1ccccc1 [C11-EG2-(kss)2-kk] ({Lauroyl-AEEA}-[Nlys][Nspe][Nspe][Nlys][Nspe][Nspe][Nlys][Nlys]-NH2) | 52 | 198 µM and 200 ± 17 µM |  |  |  |  |  |  |  | 
CCCCCCCCC(=O)NCCOCCOCC(=O)N(CCCCN)CC(=O)N(CC(=O)N(CC(=O)N(CCCCN)CC(=O)N(CC(=O)N(CC(=O)N(CCCCN)CC(=O)N(CCCCN)CC(N)=O)[C@@H](C)c1ccccc1)[C@@H](C)c1ccccc1)[C@@H](C)c1ccccc1)[C@@H](C)c1ccccc1 [C8-EG2-(kss)2-kk] ({Nonanoyl-AEEA}-[Nlys][Nspe][Nspe][Nlys][Nspe][Nspe][Nlys][Nlys]-NH2) |  | 200 ± 37 µM | 13 ± 3 | 18 ± 3 | 9 ± 1 |  |  |  |  | 
